Results on one compound are retold here after patent publication US10338077B2, “Methods for determining drug efficacy for treatment of cancer ration of cereblon associated proteins” (Celgene Corporation, priority 2015, dated 2019).

Some results are limits rather than exact numbers.

Format in all cases: cell-based, human
One experiment has as its system RPMI-8226. As to the kind of experiment: CellTiter cell proliferation assay, RPMI-8226 (multiple myeloma, irresponsive control). To be noted: RPMI-8226 multiple myeloma control cell line. The source says:
(§1) ATL cell lines Hut102, ED40515, S1T, OATL4, and OATL9, HTLV-1 transformed cell lines MT-2, MT-4, and C8166, PTCL cell line Hut78, other T-cell Jurkat, MOLT4, HL60, and monocyte cell line K562 are laboratory stocks (Dr. Hidekatsu Iha, Oita University, and Prof. Kazuhiro Morishita, The University of Miyazaki). ATL cell lines ST1, KOB, KK1, and SO4 are gift from Dr. Hiroo Hasegawa, Nagasaki University). NCI-H929 and RPMI-8226 were purchased from American Type Culture Collection (ATCC: Manassas, Va.). Each cell line was maintained with RPMI-1640 culture media supplemented with 15% fetal bovine serum (FBS: Equitech-Bio Inc., Kerrville, Tex.), penicillin G (50 U/ml), and streptomycin (50 μg/ml). Antibiotics were purchased from Sigma-Aldrich Co. LLC. (St. Louis, Mo.).
(§2) Cells were plated in 24-well plates at 5×10^4 cells per 1.5 mL RPMI1640 and kept in 5% CO2 incubator for 24 hours (cell number should reach 1×10^5). […] After 10 minutes incubation at room temperature, the reaction mixture in 96-well plates was read by Glomax luminometer (Promega). Average values and standard deviation were obtained from four independent experiments.
(§3) Relative CellTiter values compared to untreated control cells at day 0 were plotted. […] In addition, OATL4 and KOB display 30% more reductions (see Table 2).

The test system of experiment [1] is cell line 5 (ATL cell line). As to the kind of experiment: Lenalidomide sensitivity of cell types of Example 2, cell line 5. The source says:
(§4) Twenty-three types of cells from, e.g., ATL cell lines, lymphoma cell lines, leukemia cell lines, healthy peripheral blood mononuclear cells (PBMCs), and human T-lymphotropic virus 1 (HTLV-1) carrier's PBMCs are employed in this example.

The test system of a further experiment is NCI-H929. As to the kind of experiment: CellTiter cell proliferation assay, NCI-H929 (multiple myeloma, responsive control). To be noted: NCI-H929 multiple myeloma control cell line.
Description: as §1, §2, §3

Experiment [2] has as its system cell lines 1-4, 7, 10-11, and 13-23. Kind of experiment: Lenalidomide sensitivity of cell types of Example 2, other cell lines.
Description: as §4

The next experiment relates to OATL4. As to the kind of experiment: CellTiter cell proliferation assay, OATL4 (ATL cell line). To be noted: see Table 2.
Description: as §1, §2, §3

Experiment [3] has as its system cell line 6 (ATL cell line). As to the kind of experiment: Lenalidomide sensitivity of cell types of Example 2, cell line 6.
Description: as §4

The test system of the next experiment is KOB. As to the kind of experiment: CellTiter cell proliferation assay, KOB (ATL cell line). The note with it: see Table 2.
Description: as §1, §2, §3

In another experiment the test system is MT-4. As to the kind of experiment: CellTiter cell proliferation assay, MT-4 (HTLV-1 transformed).
Description: as §1, §2, §3

The test system of experiment [4] is cell line 12 (ATL cell line). Kind of experiment: Lenalidomide sensitivity of cell types of Example 2, cell line 12.
Description: as §4

In another experiment the test system is MOLT4. Kind of experiment: CellTiter cell proliferation assay, MOLT4. To be noted: MOLT-4; see Table 2.
Description: as §1, §2, §3

The test system of the next experiment is Hut102. As to the kind of experiment: CellTiter cell proliferation assay, Hut102 (ATL cell line).
Description: as §1, §2, §3
(§5) The CellTiter Assay was performed the same way as in Section 6.3, Example 3. Standard deviation was calculated from four experiments.

A further experiment has as its system HuT78. Kind of experiment: CellTiter cell proliferation assay, HuT78 (HTLV-1 negative T-cell line). To be noted: 10 μM lenalidomide for three days.
Description: as §1, §2
Relative CellTiter values compared to untreated control cells at day 0 were plotted. […]
as §5

The mark [5] stands for this setting: Homo sapiens, HuT-102, read-out: remaining activities (cell proliferation activity).

In the case of `Nc1cccc2c1CN(C1CCC(=O)NC1=O)C2=O` (centres unmarked) [lenalidomide, 1-oxo-2-(2,6-dioxopiperidin-3-yl)-4-aminoisoindoline], the results for the “response against lenalidomide treatment (FIG. 3)” value with RPMI-8226 and with NCI-H929 were “insensitive” and “sensitive”, respectively. Also, the sensitivity to lenalidomide entry in [1] is reported as “highly-sensitive”; in experiment [2], “intense tolerance”; in experiment [3], “weak/moderate-sensitive”; with MT-4 it was “moderate sensitive”; in experiment [4], “weak/moderate-sensitive”. Moreover, the “reductions of cell proliferation activity” value in the experiment with OATL4 and in the experiment on KOB was at least 30% in each case. The growth inhibition with KOB and with MOLT4 was 30% throughout. Moreover, the activity at 0.1 µM with Hut102 (setting [5]) turned out to be 64.2%. For the same compound, the activity at 1 µM with Hut102 (setting [5]) was found to be 68.3%. Besides, the activity at 10 µM with Hut102 (setting [5]) was found to be 46%. The activity at 100 µM in the experiment with Hut102 (setting [5]) was found to be 53%. Further, the “time-dependent cell growth (remaining growth activities, FIG. 4)” value in the experiment with Hut102 (HuT102, 10 μM lenalidomide for three days) is reported as “significant decrease in cell growth”; with HuT78 it was “almost unchanged”.
